In a compilation of properties of binary mixtures (doi:10.1007/s10953-012-9875-7):

Test: xn = mol fraction of the nth substance listed
Details: 101 kPa

O + CCCC[N+]1(C)CCCC1.N#C[S-]
x1 = 1
Details	viscosity [mPa·s]
298.15 K	0.89
308.15 K	0.74
318.15 K	0.63
328.15 K	0.56
338.15 K	0.5
348.15 K	0.43

O + CCCC[N+]1(C)CCCCC1.N#C[S-]
x1 = 1
Details	viscosity [mPa·s]
328.15 K	0.56
338.15 K	0.5
348.15 K	0.43

O + CCCC[n+]1ccc(C)cc1.N#C[S-]
x1 = 1
Details	viscosity [mPa·s]
298.15 K	0.89
308.15 K	0.74
318.15 K	0.63
328.15 K	0.56
338.15 K	0.5
348.15 K	0.43

O + CCCC[n+]1ccn(C)c1.N#C[S-]
x1 = 1
Details	viscosity [mPa·s]
308.15 K	0.74
318.15 K	0.63
328.15 K	0.56
348.15 K	0.46

CCCC[N+]1(C)CCCC1.N#C[S-] + O
viscosity [mPa·s]
Details	x2 = 0	x2 = 0.0853	x2 = 0.2203	x2 = 0.3555	x2 = 0.5252	x2 = 0.6634	x2 = 0.783	x2 = 0.8623	x2 = 0.9657
298.15 K	109	92	–	49.3	–	17.6	–	–	1.74
308.15 K	70.4	59.4	45.2	33.2	–	–	7.27	–	–
318.15 K	47.8	40.3	–	23.5	14.38	9.15	5.46	–	–
328.15 K	34.1	–	23	17.3	10.87	7.02	–	2.54	0.92
338.15 K	–	21.5	–	13.08	8.49	5.53	–	2.02	–
348.15 K	19.3	16.5	–	10.21	6.81	–	2.65	1.67	–

CCCC[N+]1(C)CCCCC1.N#C[S-] + O
viscosity [mPa·s]
Details	x2 = 0	x2 = 0.2774	x2 = 0.3741	x2 = 0.5111	x2 = 0.6302	x2 = 0.7172	x2 = 0.8248	x2 = 0.9351
318.15 K	265	94.9	–	33	19.13	12.13	6.02	1.97
328.15 K	152	–	–	22.33	–	8.79	4.47	1.57
338.15 K	93.5	–	25.6	15.96	9.94	6.6	3.41	1.28
348.15 K	60.5	27.83	18.51	–	7.6	5.08	2.71	1.07

CCCC[n+]1ccc(C)cc1.N#C[S-] + O
viscosity [mPa·s]
Details	298.15 K	308.15 K	318.15 K	328.15 K	338.15 K	348.15 K
x1 = 0.0076	1.07	0.87	–	0.63	0.57	0.52
x2 = 0	86	51.75	–	23.5	–	12.86
x2 = 0.0564	–	46	30.4	21.3	15.54	11.74
x2 = 0.1655	57.6	36.4	24.6	17.5	–	–
x2 = 0.278	43.1	28	19.3	13.95	10.49	8.18
x2 = 0.3797	31.3	20.9	14.68	10.87	–	6.62
x2 = 0.4628	24.8	16.8	12.14	9.17	–	5.73
x2 = 0.5669	17.8	12.47	9.17	7.02	–	–
x2 = 0.6364	14.06	–	7.48	5.78	4.58	3.69
x2 = 0.7623	8.6	6.3	4.78	3.7	–	2.44
x2 = 0.8333	6.04	4.45	3.37	2.66	2.08	1.62
x2 = 0.9028	3.65	2.74	2.13	–	1.41	1.24
x2 = 0.957	1.98	1.53	1.23	–	0.86	–
x2 = 0.9714	–	–	–	–	–	0.64

CCCC[n+]1ccn(C)c1.N#C[S-] + O
viscosity [mPa·s]
Details	298.15 K	308.15 K	318.15 K	328.15 K	338.15 K	348.15 K
x2 = 0	51.74	34.9	24.2	–	12.73	9.98
x2 = 0.0998	40.2	26.9	19.1	–	10.98	8.73
x2 = 0.2007	–	–	–	12.2	9.53	7.61
x2 = 0.3169	–	18.1	–	10.12	–	6.4
x2 = 0.4346	19.5	13.91	10.4	8.04	6.37	5.14
x2 = 0.5296	15.17	10.96	8.29	6.44	–	–
x2 = 0.6426	10.8	7.95	6.05	–	3.76	3.1
x2 = 0.7201	8.27	6.14	–	–	2.96	2.48
x2 = 0.7949	5.95	4.36	3.33	2.67	–	1.86
x2 = 0.8733	3.75	2.84	2.23	1.82	1.51	1.28
x2 = 0.9444	2.02	1.58	1.27	1.05	0.9	0.78
